Reference: PMC11063903, “Engineering a human P2X2 receptor with altered ligand selectivity in yeast” (The Journal of Biological Chemistry, 2024)

What was measured:
human P2X2 receptor = target: T1, human P2X2 receptor (Homo sapiens, UniProt Q9UBL9); test: GCaMP calcium assay of P2X2 expressed in yeast S. cerevisiae, agonist response; assay type: cell-based
T1 construct: expressed in transfected cells; host or cells: S. cerevisiae BY4741 background, P2X2 genome-integrated under a galactose-inducible promoter
T1 sequence (Q9UBL9 1-471): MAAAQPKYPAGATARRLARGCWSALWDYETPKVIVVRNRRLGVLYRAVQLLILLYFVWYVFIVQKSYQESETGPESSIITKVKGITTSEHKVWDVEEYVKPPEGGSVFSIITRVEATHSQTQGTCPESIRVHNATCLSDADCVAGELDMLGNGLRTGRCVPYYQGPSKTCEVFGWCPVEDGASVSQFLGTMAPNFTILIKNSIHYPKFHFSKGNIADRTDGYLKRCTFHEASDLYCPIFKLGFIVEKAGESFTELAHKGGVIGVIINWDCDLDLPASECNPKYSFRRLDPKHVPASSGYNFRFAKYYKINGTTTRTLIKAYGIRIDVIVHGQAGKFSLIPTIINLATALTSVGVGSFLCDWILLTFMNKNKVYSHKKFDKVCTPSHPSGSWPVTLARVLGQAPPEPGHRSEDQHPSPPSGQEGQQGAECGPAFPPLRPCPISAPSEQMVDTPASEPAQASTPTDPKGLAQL
Excerpt: Although P2X receptors are expressed in many eukaryotic organisms including some fungi ([24]), they are not present in S. cerevisiae. For recombinant expression to yield functional P2X channels, receptor proteins must be correctly folded, assembled into trimers, and efficiently trafficked to the plasma membrane. To assess whether P2X ion channels could functionally gate in S. cerevisiae the canonical isoforms of P2X1-7 were co-expressed with aequorin, a calcium-activated photoprotein from the jellyfish Aequorea victoria.
Genetic knockouts of the calnexin homolog (ΔCne1p) and vacuolar calcium transporter (Δ Vcx1p) (n = 3) were compared to the WT yeast strain (n = 2). […] Statistical analysis was performed using one-way ANOVA with Dunnett’s multiple comparisons test where ∗∗ is p ≤ 0.01. […] Yeast were injected with ATP at 21 s and onset rates from the last six points (40–48 s) were used for calculating the dose response in (D). E and F, kinetic and dose–response measurements of P2X2 with the GCaMP reporter with ATP (n = 4), partial agonist BzATP (n = 3), and agonist 2-chloro-ATP (n = 4). Figures (D and F) share the figure legend with (C). […] Suramin was pre-equilibrated with P2X2-yeast for 10 min and 5 μM ATP was injected.
To expand the assay throughput to accommodate several 96-well plates at a time, we required the acquisition of short-duration signals. Since GCaMP signals are typically measured in terms of ΔF/F0, where ΔF is Fmax-Fmin, and since the signal takes several minutes to reach Fmax, we instead attempted to correlate the rate of signal onset (rather than its amplitude) with channel activity.
Having optimized our yeast strains and assay throughput, we sought to further validate the function of human P2X2 in the yeast host.
GCaMP assays were performed as follows. P2X2 GCaMP strains were designed with a bi-cistronic reporter, in which the GCaMP protein was followed by a 2A peptide and a mScarletI reporter ([53]). The co-translated mScarletI was designed to act as a control for plasmid loss, GCaMP breakage via nonsense mutation, and contamination. […] P2X2-GCaMP strains were cultured and induced as previously described. Samples were induced for 24 h to allow for the accumulation of the mature GCaMP protein. Cells were washed three times in 0.1 M MES/Tris buffer and resuspended with MES/Tris with supplemental calcium. Cells were loaded onto a black, clear bottom microplate and imaged on a FlexStation3 plate reader. Samples were imaged in “flex” mode. Samples were imaged for 48 s at an interval of 1.6 s. Fluorescence was measured with an excitation at 485 nm, and emission 525 nm. At the 21 s mark, 100 μl ligand solution was transferred to the cells. For strains with mScarlet, fluorescence was read with excitation 570 nm/emission 610 nm. Slopes were calculated from the last 6 points of measurement and were normalized to the positive control samples. Any replicate in which the mScarlet value was measured to be over 2 standard deviations less than the mean for that set was discarded from further analysis.

P2X2 F303I = target: T2, P2X2 F303I (Homo sapiens, UniProt Q9UBL9, F303I); test: Site-saturation screen of ligand-binding domain with ATP, F303I; assay type: cell-based; conditions: 500 μM ATP, ± sd
T2 construct: expressed in transfected cells; host or cells: S. cerevisiae BY4741 background
Excerpt: (§1) The yeast P2X2 screening platform poses an opportunity to probe the structure-function of the ligand-binding domain in detail. The conserved P2X “NFR” motif at residues 300 to 302 is directly involved in bonding to the ATP triphosphate moiety ([41]), so we mutagenized residues at or near this motif (298–304), ultimately covering 133 variants (7 sites, 19 residues each). […] We compared our results to phylogenetic data based on a multiple sequence alignment (MSA) from a curated set of 419 related P2X homologs (Figs. 3B, and S5; Table S1).
(§2) Figure 3 Structure-function analysis of the ligand binding domain.A, heat map summarizing the screening data of ATP with seven site-saturation libraries surrounding the NFR-motif. B, sequence-logo plot of the mutagenized residues and percent identity scores as determined from MSA. C, homology model of P2X2 colored by sequence conservation as calculated from a multiple sequence alignment of 419 related P2X genes. Conservation is scored on a log scale where maroon is more conserved and blue is less conserved. D, ATP in the ligand-binding pocket of P2X2. […]
(§3) GCaMP assays were performed as follows. […] Cells were loaded onto a black, clear bottom microplate and imaged on a FlexStation3 plate reader. […] Fluorescence was measured with an excitation at 485 nm, and emission 525 nm. […] For strains with mScarlet, fluorescence was read with excitation 570 nm/emission 610 nm. […]

P2X2 F301 mutants = test: Site-saturation screen of ligand-binding domain with ATP, F301 mutants; assay type: cell-based, human; conditions: 500 μM ATP
Excerpt: as §1, §2, §3

T2 sequence (Q9UBL9 whole entry F303I, the tested form may be a part): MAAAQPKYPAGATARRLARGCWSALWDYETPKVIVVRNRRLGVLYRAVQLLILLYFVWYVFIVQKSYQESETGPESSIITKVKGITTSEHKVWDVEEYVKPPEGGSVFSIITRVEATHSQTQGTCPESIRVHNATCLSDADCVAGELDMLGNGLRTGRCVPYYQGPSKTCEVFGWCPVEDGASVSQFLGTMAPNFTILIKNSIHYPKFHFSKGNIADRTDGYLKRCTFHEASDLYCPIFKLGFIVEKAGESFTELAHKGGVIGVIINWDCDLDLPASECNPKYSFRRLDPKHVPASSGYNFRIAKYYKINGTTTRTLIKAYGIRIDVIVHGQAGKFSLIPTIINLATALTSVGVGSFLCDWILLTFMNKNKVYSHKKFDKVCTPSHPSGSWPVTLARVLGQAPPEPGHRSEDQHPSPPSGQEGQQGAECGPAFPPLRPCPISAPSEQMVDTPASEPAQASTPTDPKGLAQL

## Nc1ncnc2c1ncn2[C@@H]1O[C@H](COP(=O)(O)OP(=O)(O)OP(=O)(O)O)[C@@H](O)[C@H]1O [ATP]
Human P2X2 receptor; GCaMP strain, saturating (500 μM) ATP, vs K81C K83C P2X2
  maximum fluorescence compared to a negative control receptor: 12 fold
Human P2X2 receptor; rapid GCaMP assay format, yeast, Fig. 1D
  pEC50 (signaling onset rate ΔF/ΔT): 5.88 ± 0.056
Human P2X2 receptor; rapid GCaMP assay format, yeast, Fig. 1D, read-out: EC50 (signaling onset rate ΔF/ΔT)
  EC50: 1.3 µM
P2X2 F303I
  signal, % of WT signaling: 90 ± 42%
P2X2 F301 mutants
  signaling: None of the F301 mutants showed significant signaling
